Source: patent US7763615B2, “Ecteinascidin analogs for use as antitumour agents” (priority 2001, dated 2010)
Like-named read-outs stand apart in the source and are kept apart here.

How the values were obtained:
Type in all cases: cell-based
A549 = experiment: cells; settings: Homo sapiens, A549, 48 h; for GI50: read-out: GI50; for IC (TGI): read-out: TGI
Source text: (§1) The finality of these assays is to interrupt the growth of a “in vitro” tumor cell culture by means of a continued exhibition of the cells to the sample to be testing.
(§2) A colorimetric type of assay, using sulphorhodamine B (SRB) reaction has been adapted for a quantitative measurement of cell growth and viability [following the technique described by Philip Skehan, et al. (1990), New colorimetric cytotoxicity assay for anticancer drug screening, J. Natl. Cancer Inst., 82:1107-1112]
(§3) This form of the assay employs 96 well cell culture microplates of 9 mm diameter (Faircloth, 1988; Mosmann, 1983). Most of the cell lines are obtained from American Type Culture Collection (ATCC) derived from different human cancer types.
(§4) Cells are maintained in RPMI 1640 10% FBS, supplemented with 0.1 g/l penicillin and 0.1 g/l streptomycin sulphate and then incubated at 37° C., 5% CO2 and 98% humidity. For the experiments, cells were harvested from subconfluent cultures using trypsin and resuspended in fresh medium before plating.
(§5) Cells are seeded in 96 well microtiter plates, at 5×10^3 cells per well in aliquots of 195 μl medium, and they are allowed to attach to the plate surface by growing in drug free medium for 18 hours. Afterward, samples are added in aliquots of 5 μl in a ranging from 10 to 10^−8 μg/ml, dissolved in DMSO/EtOH/PBS (0.5:0.5:99). After 48 hours exposure, the antitumor effect are measured by the SRB methodology: cells are fixed by adding 50 μl of cold 50% (wt/vol) trichloroacetic acid (TCA) and incubating for 60 minutes at 4° C. Plates are washed with deionized water and dried. One hundred μl of SRB solution (0.4% wt/vol in 1% acetic acid) is added to each microtiter well and incubated for 10 minutes at room temperature. Unbound SRB is removed by washing with 1% acetic acid. Plates are air dried and bound stain is solubilized with Tris buffer. Optical densities are read on a automated spectrophotometric plate reader at a single wavelength of 490 nm.
(§6) The values for mean+/− SD of data from triplicate wells are calculated. Some parameters for cellular responses can be calculated: GI=growth inhibition, TGI=total growth inhibition (cytostatic effect) and LC=cell killing (cytotoxic effect).

HT29 = experiment: cells; settings: Homo sapiens, HT-29, 48 h
Source text: as §1, §2, §3, §4, §5, §6

H-MEC-1 = experiment: Inhibition of cells growth by colorimetric assay (SRB), H-MEC-1; settings: Homo sapiens, H-MEC-1, 48 hours exposure, SRB; for GI50 / IC (TGI): HMEC-1, 48 h; for CC50: HMEC-1, read-out: LC50 (the source's name)
Source text: as §1, §2, §3, §4, §5, §6

[1] = A549, 48 hours exposure, SRB, read-out: LC50 (the source's name)
[2] = HT29, 48 hours exposure, SRB, read-out: LC50 (the source's name)

C=COC(=O)Oc1c(OC)c(C)cc2c1[C@@H]1C3[C@@H]4SC[C@]5(C(=O)COC[C@@H](c6c7c(c(C)c(OC(C)=O)c64)OCO7)N3[C@@H](C#N)[C@H](C2)N1C)c1[nH]c2ccccc2c1CCN5C(=O)OC=C (stereo partly drawn) [Compound 23]
GI50 (A549; A549, 48 hours exposure, SRB): 118 nM
IC (TGI) (A549; A549, 48 hours exposure, SRB): 1.26 µM
CC50 (A549; read-out: LC50, A549, 48 hours exposure, SRB): 11.1 µM
GI50 (HT29; HT29, 48 hours exposure, SRB): 247 nM
IC (TGI) (HT29; HT29, 48 hours exposure, SRB): 11.1 µM
CC50 (HT29; read-out: LC50, HT29, 48 hours exposure, SRB): 11.1 µM

C=CCOc1c(OC)c(C)cc2c1[C@@H]1C3[C@@H]4SC[C@]5(NCCc6c5[nH]c5ccccc65)C(=O)COC[C@@H](c5c6c(c(C)c(OC(C)=O)c54)OCO6)N3[C@@H](C#N)[C@H](C2)N1C (stereo partly drawn) [Compound 24]
GI50 (A549; A549, 48 hours exposure, SRB): 12400 nM
CC50 (A549; [1]): 12.4 µM
IC (TGI) (A549; A549, 48 hours exposure, SRB): 12.4 µM
GI50 (HT29; HT29, 48 hours exposure, SRB): 12400 nM
IC (TGI) (HT29; HT29, 48 hours exposure, SRB): 12.4 µM
CC50 (HT29; [2]): 12.4 µM

C=CCOc1c(OC)c(C)cc2c1[C@@H]1C3[C@@H]4SC[C@]5(C(=O)COC[C@@H](c6c7c(c(C)c(OC(C)=O)c64)OCO7)N3[C@@H](C#N)[C@H](C2)N1C)c1[nH]c2ccccc2c1CCN5CC=C (stereo partly drawn) [Compound 25]
GI50 (A549; A549, 48 hours exposure, SRB): 11800 nM
CC50 (A549; [1]): 11.8 µM
IC (TGI) (A549; A549, 48 hours exposure, SRB): 11.8 µM
GI50 (HT29; HT29, 48 hours exposure, SRB): 11800 nM
IC (TGI) (HT29; HT29, 48 hours exposure, SRB): 11.8 µM
CC50 (HT29; [2]): 11.8 µM

C=CCOc1c(OC)c(C)cc2c1[C@@H]1C3[C@@H]4SC[C@]5(C(=O)COC[C@@H](c6c7c(c(C)c(OC(C)=O)c64)OCO7)N3[C@@H](O)[C@H](C2)N1C)c1[nH]c2ccccc2c1CCN5CC=C (stereo partly drawn) [Compound 49]
GI50 (A549; A549, 48 hours exposure, SRB): 2640 nM
CC50 (A549; [1]): 9.37 µM
IC (TGI) (A549; A549, 48 hours exposure, SRB): 4.97 µM
GI50 (HT29; HT29, 48 hours exposure, SRB): 4500 nM
IC (TGI) (HT29; HT29, 48 hours exposure, SRB): 12.6 µM
CC50 (HT29; [2]): 12.6 µM
GI50 (H-MEC-1): 1990 nM
IC (TGI) (H-MEC-1): 4.12 µM
CC50 (H-MEC-1): 8.54 µM

CCCC(=O)Oc1c(C)c2c(c3c1[C@H]1SC[C@]4(NCCc5c4[nH]c4ccccc54)C(=O)COC[C@@H]3N3C1[C@H]1c4c(cc(C)c(OC)c4O)C[C@@H]([C@@H]3C#N)N1C)OCO2 (stereo partly drawn) [Compound 52]
GI50 (A549; A549, 48 hours exposure, SRB): 47 nM
CC50 (A549; [1]): 943 µM
IC (TGI) (A549; A549, 48 hours exposure, SRB): 0.126 µM
GI50 (HT29; HT29, 48 hours exposure, SRB): 79.3 nM
IC (TGI) (HT29; HT29, 48 hours exposure, SRB): 12.6 µM
CC50 (HT29; [2]): 12.6 µM
GI50 (H-MEC-1): 347 nM
IC (TGI) (H-MEC-1): 0.00695 µM
CC50 (H-MEC-1): 0.0126 µM

COc1c(C)cc2c(c1O)[C@@H]1C3[C@@H]4SC[C@]5(NCCc6c5[nH]c5ccccc65)C(=O)COC[C@@H](c5c6c(c(C)c(OC(=O)CCCl)c54)OCO6)N3[C@@H](C#N)[C@H](C2)N1C (stereo partly drawn) [Compound 53]
GI50 (A549; A549, 48 hours exposure, SRB): 261 nM
CC50 (A549; [1]): 12.2 µM
IC (TGI) (A549; A549, 48 hours exposure, SRB): 0.784 µM
GI50 (HT29; HT29, 48 hours exposure, SRB): 309 nM
IC (TGI) (HT29; HT29, 48 hours exposure, SRB): 1.23 µM
CC50 (HT29; [2]): 12.3 µM
GI50 (H-MEC-1): 132 nM
IC (TGI) (H-MEC-1): 12.3 µM
CC50 (H-MEC-1): 12.3 µM

COc1c(C)cc2c(c1O)[C@@H]1C3[C@@H]4SC[C@]5(NCCc6c5[nH]c5ccccc65)C(=O)COC[C@@H](c5c6c(c(C)c(OC(=O)C(F)(F)F)c54)OCO6)N3[C@@H](C#N)[C@H](C2)N1C (stereo partly drawn) [Compound 56]
GI50 (A549; A549, 48 hours exposure, SRB): 9.3 nM
CC50 (A549; [1]): 3.79 µM
IC (TGI) (A549; A549, 48 hours exposure, SRB): 0.236 µM
GI50 (HT29; HT29, 48 hours exposure, SRB): 47.4 nM
IC (TGI) (HT29; HT29, 48 hours exposure, SRB): 12.2 µM
CC50 (HT29; [2]): 12.2 µM
GI50 (H-MEC-1): 4.17 nM
IC (TGI) (H-MEC-1): 0.00965 µM
CC50 (H-MEC-1): 0.378 µM
